Drawing on article PMC3674352 (Cell Death & Disease, 2013), this text covers IC50 for two compounds.

Common to all, as to format: cell-based
Assay [1] deals with T1, Bcl-xL (Homo sapiens, UniProt Q07817). Description: growth of yeast co-expressing Bax and Bcl-xL.
In assay [2] the target is Bcl-2 (Homo sapiens, UniProt P10415). The experiment in a line: growth of yeast co-expressing Bax and Bcl-2.
Assay [3] deals with T1, Bcl-xL. Description: growth and ATP content of yeast co-expressing Bax and Bcl-xL.

T1 sequence (Q07812 whole entry): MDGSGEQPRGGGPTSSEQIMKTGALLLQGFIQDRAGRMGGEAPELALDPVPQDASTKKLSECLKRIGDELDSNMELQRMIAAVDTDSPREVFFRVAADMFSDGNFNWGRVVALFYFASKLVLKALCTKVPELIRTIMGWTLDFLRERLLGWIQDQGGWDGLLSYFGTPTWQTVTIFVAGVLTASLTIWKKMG
T1 sequence (Q07817 whole entry): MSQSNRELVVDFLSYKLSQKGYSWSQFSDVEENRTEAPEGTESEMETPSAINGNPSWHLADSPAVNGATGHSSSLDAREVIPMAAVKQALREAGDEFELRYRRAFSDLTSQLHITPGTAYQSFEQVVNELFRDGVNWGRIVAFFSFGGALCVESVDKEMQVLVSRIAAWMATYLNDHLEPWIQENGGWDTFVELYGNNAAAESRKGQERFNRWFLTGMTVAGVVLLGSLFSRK
Sequence of Bcl-2 (Q07812 whole entry): as the sequence (Q07812 whole entry) above
Sequence of Bcl-2 (P10415 whole entry): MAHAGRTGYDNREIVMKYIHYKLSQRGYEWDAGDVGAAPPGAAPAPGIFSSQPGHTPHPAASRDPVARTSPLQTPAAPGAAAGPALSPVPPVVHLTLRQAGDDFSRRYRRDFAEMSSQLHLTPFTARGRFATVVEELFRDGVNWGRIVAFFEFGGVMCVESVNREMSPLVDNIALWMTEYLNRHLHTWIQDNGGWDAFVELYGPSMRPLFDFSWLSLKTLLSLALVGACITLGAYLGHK

Turning to `CC1(C)CCC(c2ccc(Cl)cc2)=C(CN2CCN(c3ccc(C(=O)NS(=O)(=O)c4ccc(N[C@H](CCN5CCOCC5)CSc5ccccc5)c(S(=O)(=O)C(F)(F)F)c4)cc3)CC2)C1` [ABT-263], the IC50 entry is listed as “~ just under 1 μM” in assay [1] and “~ just over 1 μM” in assay [2]. For the compound `CN(C)CC[C@H](CSc1ccccc1)Nc1ccc(S(=O)(=O)NC(=O)c2ccc(N3CCN(Cc4ccccc4-c4ccc(Cl)cc4)CC3)cc2)cc1[N+](=O)[O-]` [ABT-737], the IC50 result in assay [3] was “~ just under 1 μM”.
